Melting point and IC50 data for four molecules are collected here from patent US9073915B2, “Substituted pyrimidone derivatives” (SANOFI, priority 2008, dated 2015).

Structures are written as SMILES. Counter-ions that a name gives are not always drawn.

One data set deals with GSK3β (Homo sapiens, UniProt P49841). The data set is described as follows: Inhibitory activity against GSK3β (33P-ATP phosphorylation of prephosphorylated GS1 peptide, filter assay). Particulars: protocol 3: 7.5 μM GS1 peptide, 10 μM ATP, 50 mM Hepes pH 7.2, one hour at room temperature. In kind it is biochemical. The procedure: Four different protocols can be used. […]
Sequence of GSK3β (P49841 whole entry): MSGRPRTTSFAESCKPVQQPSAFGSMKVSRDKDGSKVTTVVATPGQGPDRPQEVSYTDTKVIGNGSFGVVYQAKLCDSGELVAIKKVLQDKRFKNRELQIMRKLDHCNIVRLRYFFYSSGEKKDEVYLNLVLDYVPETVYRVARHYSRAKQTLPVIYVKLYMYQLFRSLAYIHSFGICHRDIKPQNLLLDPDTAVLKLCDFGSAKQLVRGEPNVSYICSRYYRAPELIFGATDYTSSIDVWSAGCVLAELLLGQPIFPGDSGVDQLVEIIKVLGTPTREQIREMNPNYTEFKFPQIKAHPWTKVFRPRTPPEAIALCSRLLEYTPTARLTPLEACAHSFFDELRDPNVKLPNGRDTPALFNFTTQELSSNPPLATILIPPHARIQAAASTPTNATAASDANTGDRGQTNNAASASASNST
The reaction was stopped with 100 microliters of a solution made of 25 g polyphosphoric acid (85% P2O5), 126 ml 85% H3PO4, H2O to 500 ml and then diluted to 1:100 before use. […] Incorporated ^33P radioactivity was determined by liquid scintillation spectrometry. […]

`COc1ccccc1CCc1cccn2c(=O)cc(-c3ccncc3)nc12` (as salt: hydrochloride) [compound 7, 9-[2-(2-Methoxy-phenyl)-ethyl]-2-pyridin-4-yl-pyrido[1,2-a]pyrimidin-4-one] returned a melting point of 220 to 224 °C.

In the case of `O=c1cc(-c2ccncc2)nc2cc(-c3ccccc3)ccn12` (as salt: salt) [Compound No. 4, 8-Phenyl-2-pyridin-4-yl-pyrido[1,2-a]pyrimidin-4-one], the melting point was in the range of 261 to 262 °C.

At GSK3β, `O=c1cc(-c2ccncc2)nc2cc(-c3ccccc3)ccn12` [Compound No. 4, 8-Phenyl-2-pyridin-4-yl-pyrido[1,2-a]pyrimidin-4-one] had an IC50 of 490 nM.

`COc1ccccc1CCc1cccn2c(=O)cc(-c3ccncc3)nc12` [compound 7, 9-[2-(2-Methoxy-phenyl)-ethyl]-2-pyridin-4-yl-pyrido[1,2-a]pyrimidin-4-one]: at GSK3β, 30 nM corresponded to half-maximal inhibition (IC50).
